Assays:
galium = assay: Test A postemergence; assay type: in vivo, Galium aparine; settings: 1000 g ai/ha, Postemergence; 0 to 100 scale
Description: (§1) Seeds of plant species selected from barnyardgrass (Echinochloa crusgalli), blackgrass (Alopecurus myosuroides), corn (Zea mays), foxtail, giant (giant foxtail, Setaria faberi), goosegrass (Eleusine indica), kochia (Bassia scoparia), oat, wild (wild oat, Avena fatua), pigweed, palmer (palmer amaranth, palmer pigweed, Amaranthus palmeri), Pigweed, Redroot (redroot pigweed, Amaranthus retroflexus), ragweed (common ragweed, Ambrosia artemisiifolia), ryegrass, Italian (italian ryegrass, Lolium multiflorum), soybean (Glycine max), and wheat (Triticum aestivum) were planted into a blend of loam soil and sand and treated preemergence with a directed soil spray using test chemicals formulated in a non-phytotoxic solvent mixture which included a surfactant. At the same time, plants selected from these crops and weed species and also galium (catchweed bedstraw, Galium aparine) and horseweed (Erigeron canadensis) were planted in pots containing the same blend of loam soil and sand and treated with postemergence applications of test chemicals formulated in the same manner. Plants ranged in height from 2 to 10 cm and were in the one- to two-leaf stage for the postemergence treatment. Treated plants and untreated controls were maintained in a greenhouse for 10 days, after which time all treated plants were compared to untreated controls and visually evaluated for injury. Plant response ratings, summarized in Table A, are based on a 0 to 100 scale where 0 is no effect and 100 is complete control. A dash (-) response means no test result.

goosegrass [1] = assay: Test A preemergence; assay type: in vivo, Eleusine indica
Description: as §1

foxtail, giant [2] = assay: Test A preemergence; assay type: in vivo, Setaria faberi
Description: as §1

foxtail, giant [3] = assay: Test A postemergence; assay type: in vivo, Setaria faberi; settings: 0 to 100 scale; for Plant response rating, Foxtail, Giant: 1000 g ai/ha, Postemergence
Description: as §1

ryegrass, Italian [4] = assay: Test A postemergence; assay type: in vivo, Lolium multiflorum; settings: 0 to 100 scale; for Plant response rating, Ryegrass, Italian: 1000 g ai/ha, Postemergence
Description: as §1

blackgrass [5] = assay: Test A postemergence; assay type: in vivo, Alopecurus myosuroides; settings: 0 to 100 scale; for Plant response rating, Blackgrass: 1000 g ai/ha, Postemergence
Description: as §1

horseweed = assay: Test A postemergence; assay type: in vivo, Erigeron canadensis; settings: 0 to 100 scale; for Plant response rating, Horseweed: 1000 g ai/ha, Postemergence
Description: as §1

blackgrass [6] = assay: Test A preemergence; assay type: in vivo, Alopecurus myosuroides
Description: as §1

ryegrass, Italian [7] = assay: Test A preemergence; assay type: in vivo, Lolium multiflorum
Description: as §1

kochia [8] = assay: Test A preemergence; assay type: in vivo, Bassia scoparia
Description: as §1

kochia [9] = assay: Test A postemergence; assay type: in vivo, Bassia scoparia; settings: 0 to 100 scale; for Plant response rating, Kochia: 1000 g ai/ha, Postemergence
Description: as §1

pigweed, palmer [10] = assay: Test A preemergence; assay type: in vivo, Amaranthus palmeri
Description: as §1

ragweed [11] = assay: Test A postemergence; assay type: in vivo, Ambrosia artemisiifolia; settings: 0 to 100 scale; for Plant response rating, Ragweed: 1000 g ai/ha, Postemergence
Description: as §1

pigweed, palmer [12] = assay: Test A postemergence; assay type: in vivo, Amaranthus palmeri; settings: 0 to 100 scale; for Plant response rating, Pigweed, Palmer: 1000 g ai/ha, Postemergence
Description: as §1

ragweed [13] = assay: Test A preemergence; assay type: in vivo, Ambrosia artemisiifolia
Description: as §1

goosegrass [14] = assay: Test A postemergence; assay type: in vivo, Eleusine indica; settings: 0 to 100 scale; for Plant response rating, Goosegrass: 1000 g ai/ha, Postemergence
Description: as §1

oat, wild [15] = assay: Test A postemergence; assay type: in vivo, Avena fatua; settings: 125 g ai/ha, postemergence, 10 days; 0 to 100 scale, 0 no effect, 100 complete control
Description: as §1

oat, wild [16] = assay: Test A preemergence; assay type: in vivo, Avena fatua; settings: 125 g ai/ha, visual injury after 10 days, 0 to 100 scale, 0 is no effect, 100 is complete control
Description: as §1

corn [17] = assay: Test A postemergence; assay type: in vivo, Zea mays; settings: 125 g ai/ha, postemergence, 10 days; 0 to 100 scale, 0 no effect, 100 complete control
Description: as §1

soybean [18] = assay: Test A preemergence; assay type: in vivo, Glycine max; settings: 125 g ai/ha, visual injury after 10 days, 0 to 100 scale, 0 is no effect, 100 is complete control
Description: as §1

soybean [19] = assay: Test A postemergence; assay type: in vivo, Glycine max; settings: 125 g ai/ha, postemergence, 10 days; 0 to 100 scale, 0 no effect, 100 complete control
Description: as §1

wheat [20] = assay: Test A postemergence; assay type: in vivo, Triticum aestivum; settings: 125 g ai/ha, postemergence, 10 days; 0 to 100 scale, 0 no effect, 100 complete control
Description: as §1

wheat [21] = assay: Test A preemergence; assay type: in vivo, Triticum aestivum; settings: 125 g ai/ha, visual injury after 10 days, 0 to 100 scale, 0 is no effect, 100 is complete control
Description: as §1

corn [22] = assay: Test A preemergence; assay type: in vivo, Zea mays; settings: 125 g ai/ha, visual injury after 10 days, 0 to 100 scale, 0 is no effect, 100 is complete control
Description: as §1

[23] = 1000 g ai/ha, 0 to 100 scale (0 no effect, 100 complete control), 10 days
[24] = 125 g ai/ha, visual injury after 10 days, 0 to 100 scale, 0 is no effect, 100 is complete control
[25] = 125 g ai/ha, postemergence, 10 days, 0 no effect, 100 complete control

C[C@H]1CN(C(=O)c2cccc(-n3cncn3)c2)c2cc([N+](=O)[O-])ccc2O1 [Compound 49]
Plant response rating, Galium (galium): 30 | Plant response rating, Goosegrass (goosegrass [1]; [23]): 30 | Plant response rating, Foxtail, Giant (foxtail, giant [2]; [23]): 20 | Plant response rating, Foxtail, Giant (foxtail, giant [3]): 10 | Plant response rating, Ryegrass, Italian (ryegrass, Italian [4]): 30 | Plant response rating, Blackgrass (blackgrass [5]): 0 | Plant response rating, Horseweed (horseweed): 0 | Plant response rating, Blackgrass (blackgrass [6]; [23]): 0 | Plant response rating, Ryegrass, Italian (ryegrass, Italian [7]; [23]): 30 | Plant response rating, Kochia (kochia [8]; [23]): 0 | Plant response rating, Kochia (kochia [9]): 10 | Plant response rating, Pigweed, Palmer (pigweed, palmer [10]; [23]): 0 | Plant response rating, Ragweed (ragweed [11]): 30 | Plant response rating, Pigweed, Palmer (pigweed, palmer [12]): 0 | Plant response rating, Ragweed (ragweed [13]; [23]): 0 | Plant response rating, Goosegrass (goosegrass [14]): 10

CCC(C)c1ncn(-c2cccc(C(=O)N3C[C@H](C)Oc4c(C)cccc43)c2)n1 (stereo partly drawn) [Compound 87]
Plant response rating, Goosegrass (goosegrass [1]; [24]): 80 | Plant response rating, Foxtail, Giant (foxtail, giant [2]; [24]): 50 | Oat, Wild plant response rating (oat, wild [15]): 20 | Plant response rating, Oat, Wild (oat, wild [16]): 20 | Corn plant response rating (corn [17]): 10 | Foxtail, Giant plant response rating (foxtail, giant [3]; [25]): 10 | Ryegrass, Italian plant response rating (ryegrass, Italian [4]; [25]): 10 | Blackgrass plant response rating (blackgrass [5]; [25]): 10 | Horseweed plant response rating (horseweed; [25]): 0 | Plant response rating, Blackgrass (blackgrass [6]; [24]): 40 | Plant response rating, Ryegrass, Italian (ryegrass, Italian [7]; [24]): 100 | Plant response rating, Kochia (kochia [8]; [24]): 30 | Plant response rating, Soybean (soybean [18]): 0 | Kochia plant response rating (kochia [9]; [25]): 70 | Plant response rating, Pigweed, Palmer (pigweed, palmer [10]; [24]): 30 | Soybean plant response rating (soybean [19]): 40 | Ragweed plant response rating (ragweed [11]; [25]): 50 | Pigweed, Palmer plant response rating (pigweed, palmer [12]; [25]): 30 | Wheat plant response rating (wheat [20]): 10 | Plant response rating, Ragweed (ragweed [13]; [24]): 0 | Plant response rating, Wheat (wheat [21]): 0 | Plant response rating, Corn (corn [22]): 10 | Goosegrass plant response rating (goosegrass [14]; [25]): 30

Cc1nc(-c2cccc(C(=O)N3C[C@H](C)Oc4c(Cl)cccc43)c2)no1 [Compound 120]
Plant response rating, Galium (galium): 40 | Plant response rating, Goosegrass (goosegrass [1]; [23]): 10 | Plant response rating, Foxtail, Giant (foxtail, giant [2]; [23]): 20 | Plant response rating, Foxtail, Giant (foxtail, giant [3]): 20 | Plant response rating, Ryegrass, Italian (ryegrass, Italian [4]): 0 | Plant response rating, Blackgrass (blackgrass [5]): 0 | Plant response rating, Horseweed (horseweed): 0 | Plant response rating, Blackgrass (blackgrass [6]; [23]): 10 | Plant response rating, Ryegrass, Italian (ryegrass, Italian [7]; [23]): 10 | Plant response rating, Kochia (kochia [8]; [23]): 0 | Plant response rating, Kochia (kochia [9]): 50 | Plant response rating, Pigweed, Palmer (pigweed, palmer [10]; [23]): 0 | Plant response rating, Ragweed (ragweed [11]): 0 | Plant response rating, Pigweed, Palmer (pigweed, palmer [12]): 40 | Plant response rating, Ragweed (ragweed [13]; [23]): 0 | Plant response rating, Goosegrass (goosegrass [14]): 10

Cc1noc(-c2cccc(C(=O)N3C[C@H](C)Oc4c(Cl)cccc43)c2)n1 [Compound 121]
Plant response rating, Galium (galium): 80 | Plant response rating, Goosegrass (goosegrass [1]; [23]): 0 | Plant response rating, Foxtail, Giant (foxtail, giant [2]; [23]): 60 | Plant response rating, Foxtail, Giant (foxtail, giant [3]): 20 | Plant response rating, Ryegrass, Italian (ryegrass, Italian [4]): 0 | Plant response rating, Blackgrass (blackgrass [5]): 0 | Plant response rating, Horseweed (horseweed): 0 | Plant response rating, Blackgrass (blackgrass [6]; [23]): 0 | Plant response rating, Ryegrass, Italian (ryegrass, Italian [7]; [23]): 0 | Plant response rating, Kochia (kochia [8]; [23]): 0 | Plant response rating, Kochia (kochia [9]): 70 | Plant response rating, Pigweed, Palmer (pigweed, palmer [10]; [23]): 60 | Plant response rating, Ragweed (ragweed [11]): 0 | Plant response rating, Pigweed, Palmer (pigweed, palmer [12]): 50 | Plant response rating, Ragweed (ragweed [13]; [23]): 0 | Plant response rating, Goosegrass (goosegrass [14]): 0

Cc1csc(-c2cccc(C(=O)N3C[C@H](C)Oc4c(Cl)cccc43)c2)n1 [Compound 124]
Plant response rating, Galium (galium): 30 | Plant response rating, Goosegrass (goosegrass [1]; [23]): 60 | Plant response rating, Foxtail, Giant (foxtail, giant [2]; [23]): 80 | Plant response rating, Foxtail, Giant (foxtail, giant [3]): 40 | Plant response rating, Ryegrass, Italian (ryegrass, Italian [4]): 0 | Plant response rating, Blackgrass (blackgrass [5]): 0 | Plant response rating, Horseweed (horseweed): 0 | Plant response rating, Blackgrass (blackgrass [6]; [23]): 0 | Plant response rating, Ryegrass, Italian (ryegrass, Italian [7]; [23]): 60 | Plant response rating, Kochia (kochia [8]; [23]): 0 | Plant response rating, Kochia (kochia [9]): 30 | Plant response rating, Pigweed, Palmer (pigweed, palmer [10]; [23]): 30 | Plant response rating, Ragweed (ragweed [11]): 0 | Plant response rating, Pigweed, Palmer (pigweed, palmer [12]): 60 | Plant response rating, Ragweed (ragweed [13]; [23]): 0 | Plant response rating, Goosegrass (goosegrass [14]): 0

Reference: US20260262643A1, “HERBICIDAL BENZOXAZINES” (FMC CORPORATION, priority 2022, published 2026)
